According to patent publication US20240270821A1, “GIP/GLP1/GCG TRI-RECEPTOR AGONISTS AND USES THEREOF” (priority 2023, published 2024):
Residue numbers refer to the chain shown, from its start. Where two headings read alike, the source gives them in different places. Blank lines part the entries; values can stand above or below the molecule they belong to. Starred links: 1 amine or outer side, 2 acyl side, 3 side chain; linkers in the order of their positions; H or OH if unused. Non-standard residues stand in square brackets, D forms with d. Groups on a side chain read outwards from the residue. No end group written: not given here. *: point of attachment. C18 diacid = O=C(O)CCCCCCCCCCCCCCCCC(=O)*; αMePhe(2-F) = C[C@](N)(Cc1ccccc1F)C(=O)O; γGlu = O=C(O)[C@H](CCC(=O)[*:2])N[*:1]; αMe4Pal = C[C@](N)(Cc1ccncc1)C(=O)O; αMeY = C[C@](N)(Cc1ccc(O)cc1)C(=O)O; 4Pal = N[C@@H](Cc1ccncc1)C(=O)O; αMeL = CC(C)C[C@](C)(N)C(=O)O; αMeS = C[C@](N)(CO)C(=O)O; Orn = NCCC[C@H](N)C(=O)O; AEEA = NCCOCCOCC(=O)O; Aib = CC(C)(N)C(=O)O

Experiments:
hGIPR [1] = target: T1, hGIPR (Homo sapiens, UniProt P48546); test: Functional cAMP activity in the presence of 1% HSA; type: cell-based
T1 sequence (P48546 22-466): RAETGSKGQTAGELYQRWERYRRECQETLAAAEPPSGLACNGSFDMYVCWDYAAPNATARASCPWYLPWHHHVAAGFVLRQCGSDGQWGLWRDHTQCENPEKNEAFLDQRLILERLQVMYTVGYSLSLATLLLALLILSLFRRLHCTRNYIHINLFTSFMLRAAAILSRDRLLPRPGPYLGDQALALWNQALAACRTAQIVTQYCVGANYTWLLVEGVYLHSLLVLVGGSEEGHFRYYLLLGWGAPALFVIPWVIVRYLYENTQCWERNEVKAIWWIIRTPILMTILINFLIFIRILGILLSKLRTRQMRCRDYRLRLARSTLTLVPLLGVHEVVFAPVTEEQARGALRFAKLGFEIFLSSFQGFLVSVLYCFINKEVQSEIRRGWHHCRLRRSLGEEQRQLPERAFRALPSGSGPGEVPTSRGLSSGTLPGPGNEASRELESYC

hGLP-1R [2] = target: T2, hGLP-1R (Homo sapiens, UniProt P43220); test: Functional cAMP activity in the presence of 1% HSA; type: cell-based
human GcgR = human GcgR (Homo sapiens, UniProt P47871); test: Functional cAMP activity in the presence of 1% HSA; type: cell-based
hGIPR [3] = target: T1, hGIPR; test: Functional cAMP activation in the presence of 0.1% casein (no HSA); type: cell-based;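 for Relative cAMP EC50, hGIPR: intracellular cAMP rise after 30 min at 37 °C read by HTRF against a standard curve, scaled between buffer alone (0%) and top control ligand concentration (100%), four-parameter fit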;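 for Relative cAMP EC50, hGLP-1R: intracellular cAMP rise after 30 min at 37 °C read by HTRF, normalized between buffer only (0%) and maximal control ligand (100%), four-parameter variable-slope fit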;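 for Relative cAMP EC50, hGcgR: intracellular cAMP rise after 30 min at 37 °C, read by HTRF against a cAMP standard curve, scaled from buffer only (0%) to maximal control ligand response (100%)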
hGLP-1R [4] = target: T2, hGLP-1R; test: as above; type: cell-based
hGcgR = hGcgR (Homo sapiens, UniProt P47871); test: as above; type: cell-based
human GLP1-R = human GLP1-R (Homo sapiens, UniProt P43220); test: GLP1-R internalization assay in HEK293 cells; type: cell-based
[5] = In vivo ileum (distal loop) absorption assay; conditions: Sprague Dawley, rat, 300 μM peptide with 100 mM C10, rats
Method: Ileum absorption of the exemplary polypeptides in the presence of C10 in rats is evaluated using a previously reported intestinal closed loop model (Lawrence, S. A.; Blankenship, R.; Brown, […].; Ellis, B.; Thangaraju, A.; Datta-Mannan, A., Influence of FcRn binding properties on the gastrointestinal absorption and exposure profile of Fc molecules. […] Overnight fasted Sprague Dawley rats with body weights between 250-280 grams are anesthetized by inhaling isoflurane and placed on a warm surgical table maintained by circulating water at 37 °C. The surgical area is shaved, and the skin is disinfected with betadine scrub followed by 70% isopropyl alcohol. An approximately 2 cm ventral midline incision is made to expose intestine, and 10 cm of an ileum segment is tied off. The peptides are formulated with 100 mM C10 in Tris buffer (pH 8.0, 50 mM) at a final concentration of 300 μM. The formulations are administered directly into the ileum loop. […] Blood samples are collected into tubes containing […] (5%) and processed to plasma for subsequent analyses. Peptide concentrations in the plasma are determined by LC/MS.

in vivo = test: in vivo; parameters: species or system Sprague Dawley rats; conditions: male, Sprague Dawley, rat, 4 mg/kg
[6] = Body weight in diet-induced obese C57BL/6 mice; type: in vivo; conditions: 10 nmol/kg SC QD, percent of starting weight, DIO mice, mean ± SEM n=5
Method in brief: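 Male C57BL/6 DIO mice (41-50 g, 5 per group, randomized by weight) on calorie-rich diet received subcutaneous doses 30-90 min before dark onset, QD or Q3D for 9-16 days. Body weight measured daily, expressed as percent of starting weight, mean±SEM.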

hGLP-1R [7] = target: T2, hGLP-1R; test: cell-based or functional assay
[8] = target: T3, human GIP receptor (hGIPR) (human) (UniProt P48546); test: cell-based or functional assay
T3 sequence (looked up): T1 sequence (P48546 22-466)

[9] = target: T4, human GIP receptor (human) (UniProt P48546); test: cell-based or functional assay
T4 sequence (looked up): T1 sequence (P48546 22-466)

[10] = target: human GLP-1 receptor (hGLP-1R) (human) (UniProt P43220); test: cell-based or functional assay
[11] = target: human glucagon receptor (hGcgR) (human) (UniProt P47871); test: cell-based or functional assay
[12] = target: human glucagon receptor (human) (UniProt P47871); test: cell-based or functional assay
[13] = read-out: cAMP Rel EC50, hGLP-1R
[14] = read-out: Relative cAMP EC50, hGIPR
[15] = read-out: Relative cAMP EC50, hGLP-1R
[16] = read-out: Relative cAMP EC50, hGcgR

T2 sequence (P43220 24-463): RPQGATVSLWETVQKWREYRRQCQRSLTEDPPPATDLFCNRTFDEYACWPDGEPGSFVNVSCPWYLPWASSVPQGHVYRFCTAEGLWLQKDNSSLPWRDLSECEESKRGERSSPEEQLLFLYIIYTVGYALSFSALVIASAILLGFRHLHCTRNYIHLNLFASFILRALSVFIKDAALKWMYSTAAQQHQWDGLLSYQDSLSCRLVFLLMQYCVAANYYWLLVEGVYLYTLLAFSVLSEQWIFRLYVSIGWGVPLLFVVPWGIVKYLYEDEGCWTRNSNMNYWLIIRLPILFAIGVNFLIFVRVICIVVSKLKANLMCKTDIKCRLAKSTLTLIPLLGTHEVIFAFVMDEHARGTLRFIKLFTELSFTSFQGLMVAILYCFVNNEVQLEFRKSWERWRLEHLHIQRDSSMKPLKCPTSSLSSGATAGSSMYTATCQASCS
hGcgR, sequence (P47871 26-477): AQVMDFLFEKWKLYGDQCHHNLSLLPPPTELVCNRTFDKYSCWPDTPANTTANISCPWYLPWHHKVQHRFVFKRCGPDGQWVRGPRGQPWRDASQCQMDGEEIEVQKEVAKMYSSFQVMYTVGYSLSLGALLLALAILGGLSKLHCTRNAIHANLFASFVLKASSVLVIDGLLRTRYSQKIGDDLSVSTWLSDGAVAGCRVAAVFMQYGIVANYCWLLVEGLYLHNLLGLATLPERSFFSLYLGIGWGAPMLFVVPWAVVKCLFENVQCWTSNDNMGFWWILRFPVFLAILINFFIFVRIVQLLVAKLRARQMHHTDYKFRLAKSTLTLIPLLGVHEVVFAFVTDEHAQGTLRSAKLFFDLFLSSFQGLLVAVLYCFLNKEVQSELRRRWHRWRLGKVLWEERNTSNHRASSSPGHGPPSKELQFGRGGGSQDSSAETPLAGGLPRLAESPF
human GcgR, sequence (P47871 26-477): as above
human GLP-1 receptor (hGLP-1R) (human), sequence (P43220 24-463): as the sequence (P43220 24-463) above
human GLP1-R, sequence (P43220 24-463): as above
human glucagon receptor (human), sequence (P47871 26-477): as the sequence (P47871 26-477) above
human glucagon receptor (hGcgR) (human), sequence (P47871 26-477): as above

Molecule: Y[Aib]QGTFTSDFSQ[αMeL]LDKK([AEEA-γGlu-C18 diacid])AQ[αMe4Pal]AFIEYLIE[Aib]GESSGAPPPSGS-NH2 [Example 232]
- EC50 (hGIPR [1]): 24.6 nM
- EC50 (hGLP-1R [2]): 226 nM
- EC50 (human GcgR): 482 nM
- EC50 (hGIPR [3]): 0.102 nM
- EC50 (hGLP-1R [4]): 0.819 nM
- EC50 (hGcgR): 2.42 nM
- EC50 (human GLP1-R): 44.7 nM
- Internalization % TOP (human GLP1-R; normalized to maximum concentration of GLP-1 (100%)): 45.5%
- AUC [5]: 202 nM·h
- level at time molar at 10 min ([5]; 10 min, read-out: 10 min IL plasma concentration): 0.186 µM
- level at time molar at 20 min ([5]; 20 min, read-out: 20 min IL plasma concentration): 0.235 µM
- level at time molar at 40 min ([5]; 40 min, read-out: 40 min IL plasma concentration): 0.255 µM
- level at time molar at 1 h ([5]; 60 min, read-out: 60 min IL plasma concentration): 0.256 µM

Molecule: Y[Aib]QGT[αMePhe(2-F)]TSD[4Pal][αMeS]I[αMeL]LD[Orn]K([AEEA-γGlu-C18 diacid])AQ[Aib][Orn]FI[dE]YLIEGGPSSGEPPPSEG-NH2 [Example 463]
- EC50 (hGIPR [1]; read-out: cAMP Rel EC50, hGIPR): 6.36 nM
- EC50 (hGLP-1R [2]; [13]): 24.7 nM
- EC50 (human GcgR; read-out: cAMP Rel EC50, hGcgR): 496 nM
- EC50 (hGIPR [3]; [14]): 0.0558 nM
- EC50 (hGLP-1R [4]; [15]): 0.362 nM
- EC50 (hGcgR; [16]): 4.27 nM
- CL/F (in vivo): 0.97 L/h/kg
- half-life (in vivo): 8.3 h
- Body weight (%) ([6]; 9 days): 83.31 ± 2.10 %

Molecule: Y[Aib]QGT[αMePhe(2-F)]TSD[4Pal][αMeS]I[αMeL]LD[Orn]K([AEEA-γGlu-C18 diacid])AQ[Aib][Orn]FI[dE][αMeY]LIEGGPSSGAPEPSEG-NH2 [Example 429]
- EC50 (hGIPR [1]; read-out: cAMP Rel EC50, hGIPR): 1.89 nM
- EC50 (hGLP-1R [2]; [13]): 12.1 nM
- EC50 (human GcgR; read-out: cAMP Rel EC50, hGcgR): 138 nM
- EC50 (hGIPR [3]; [14]): 0.0142 nM
- EC50 (hGLP-1R [4]; [15]): 0.178 nM
- EC50 (hGcgR; [16]): 1.19 nM
- CL/F (in vivo): 0.64 L/h/kg
- half-life (in vivo): 7.8 h
- Body weight (%) ([6]; 9 days): 74.66 ± 3.87 %
- Body weight (%) ([6]; 15 days): 70.20 ± 1.63 %

The remaining lines, values ahead:

- cAMP Rel EC50, nM (presence of 1% HSA) (hGLP-1R [7]): 67.3 nM
- Relative cAMP EC50 [8]: 0.0171 nM
- cAMP Rel EC50, nM (presence of 1% HSA) [9]: 3.79 nM
- Relative cAMP EC50 [10]: 0.252 nM
- Relative cAMP EC50 [11]: 2.36 nM
- cAMP Rel EC50, nM (presence of 1% HSA) [12]: 679 nM
B1: Example 579 (peptide)
chain: YXQGTXTSDXSILLDKKAQXAFIEWLQEGGPSSGEPPPSGTEE
modifications: non-natural residues; lysine acylated with C18 diacid; C-terminal amide; synthetic construct; SITE 2: note = 2-Aminoisobutyric Acid; SITE 6: note = alpha-methyl-2-fluoro-L-phenylalanine; SITE 10: note = 3-(4-Pyridyl)-L-alanine; SITE 17: note = Lysine is chemically modified through conjugation of the epsilon-amino group of the Lysine side chain with (gamma-Glu)2-CO-(CH2)1

- cAMP Rel EC50, nM (presence of 1% HSA) (hGLP-1R [7]): 71 nM
- Relative cAMP EC50 [8]: 0.0692 nM
- cAMP Rel EC50, nM (presence of 1% HSA) [9]: 12.3 nM
- Relative cAMP EC50 [10]: 0.542 nM
- Relative cAMP EC50 [11]: 6.32 nM
- cAMP Rel EC50, nM (presence of 1% HSA) [12]: 1250 nM
B2: Example 583 (peptide)
chain: B1 chain with K16X, W25Y
modifications: acylated lysine (γ-Glu)2 C18 diacid; non-natural residues; C-terminal amide; synthetic construct; SITE 2: note = 2-Aminoisobutyric Acid; SITE 6: note = alpha-methyl-2-fluoro-L-phenylalanine; SITE 10: note = 3-(4-Pyridyl)-L-alanine; SITE 16: note = L-ornithine; SITE 17: note = Lysine is chemically modified through conjugation of the epsilon-amino group of the Lysine side chai
